Source: PMC7235863, “Benzamide Derivatives Targeting the Cell Division Protein FtsZ: Modifications of the Linker and the Benzodioxane Scaffold and Their Effects on Antimicrobial Activity” (Antibiotics, 2020)
≈ marks a conversion by molar mass, not a printed value. Where two headings read alike, the source gives them in different places.

Tests used:
[1] = tested on: MSSA ATCC 29213; test: MIC/MBC determination in LB broth, MSSA; assay type: cell-based, Staphylococcus aureus; details: MSSA ATCC 29213
Method: (§1) Normal human lung fibroblasts (MRC-5) were grown in Dulbecco’s modified Eagle’s medium (DMEM) supplemented with 10% calf serum, 100 U/mL penicillin and […] streptomycin in an incubator at 5% CO2 atmosphere and 37 °C. The Gram-positive Staphylococcus aureus (methicillin-sensitive, MSSA ATCC 29213, and methicillin-resistant, MRSA ATCC 43300) and the Gram-negative Escherichia coli (ESBL, extended-spectrum beta-lactamase-positive) bacterial cells were grown in Luria-Bertani broth (LB) at 37 °C under constant shaking at 300 rpm.
(§2) The antibacterial activity was tested on both a methicillin-sensitive and a methicillin-resistant S. aureus strain, and an ESBL E. coli clinical isolate. All the compounds were dissolved at the final concentration of 20 mg/mL in dimethyl sulfoxide (DMSO) and serially diluted in LB. Fresh cell cultures were used at 10^5 cells/mL in a final volume of 2 mL. Each bacterial sample was grown with different compound concentrations that ranged from 100 to 0.1 μg/mL. […] To determine the MBC, the bacteria were then washed three times with LB, centrifuged at 900× g for 10 min at 4 °C, and the pellet resuspended in fresh LB. After overnight incubation at 37 °C, the absence of growth was confirmed by OD measurement. The presence of antibacterial activity, at any concentration tested, was established for values of absorbance < 0.1 OD600. All tests were performed in quadruplicate and for each series of experiments, both positive (no compounds) and negative (no bacteria) controls were included.

[2] = tested on: MRSA ATCC 43300; test: MIC/MBC determination in LB broth, MRSA; assay type: cell-based, Staphylococcus aureus
Method: as §1, §2

[3] = tested on: MDRSA 12.1; test: Broth microdilution MIC, MDRSA 12.1; assay type: cell-based, Staphylococcus aureus
Method: (§3) Antimicrobial activity of 1–8 was evaluated on both Gram-positive (Table 3) and Gram-negative (Table 4) species. As a continuation of our previous studies, considering the Gram-positive S. aureus, we chose a methicillin-sensitive S. aureus (MSSA, ATCC 29213), a methicillin-resistant S. aureus (MRSA, ATCC 43300) and two clinical isolates of S. aureus showing multi-drug resistance (MDRSA).
(§4) Antibacterial activities of compounds were determined by the broth microdilution method against MDRSA 11.7, MDRSA 12.1 and E. coli N43 following the European Committee on Antimicrobial Susceptibility Testing (EUCAST) recommendations and Clinical and Laboratory Standards Institute (CLSI) guidelines. Strains MDRSA ST-11.7 and ST-12.1 were obtained through the interlaboratory control organized by the EU Reference Laboratory—Antimicrobial Resistance. Only data on their resistance to antibiotics are known, but other data are not available.
(§5) Bacterial suspension of specific bacterial strain equivalent to 0.5 McFarland turbidity standard was diluted with cation-adjusted Mueller Hinton broth with TES (Thermo Fisher Scientific), to obtain a final inoculum of 10^5 CFU/mL. Compounds dissolved in DMSO and inoculum were mixed together and incubated for 20 h at 37 °C. After incubation, the minimal inhibitory concentration (MIC) values were determined by visual inspection as the lowest dilution of compounds showing no turbidity. Tetracycline was used as a positive control on every assay plate.

[4] = tested on: MDRSA 11.7; test: Broth microdilution MIC, MDRSA 11.7; assay type: cell-based, Staphylococcus aureus
Method: as §3, §4, §5

[5] = tested on: MRC-5 cells; test: MTT cytotoxicity assay; assay type: cell-based, human; details: MRC-5, concentration reducing cell viability by 90%, 24-h incubation
Method: The compounds showing the most promising activities vs. MRSA were also assessed for their cytotoxicity on human MRC-5 cells. TD90, the concentration (µg/mL) able to reduce by 90% the viability of these cells, was determined together with the therapeutic index (TI), expressed as the ratio between TD90 and MBC values.
as §1
Compounds showing an antibacterial activity at a concentration lower than 10 μg/mL were serially diluted in DMEM and tested on MRC-5 cells by the MTT cytotoxicity assay (Sigma, St Louis, MO, USA). Cells (10^4 cells/well) were tested in a 96-well plate, in quadruplicate, using serially two-fold-diluted concentrations of the compound in 100 μL DMEM medium. After a 24-h incubation, the compound was removed, and the cells were overlaid with 1 mg/mL MTT in 100 μL serum-free DMEM for 3 h at 37 °C. The MTT solution was then replaced with DMSO for 10 min, and the absorbance was measured at 570 nm. The percentage of cytotoxicity was calculated by the formula [100 − (sample OD/untreated cells OD) × 100]. The compound concentration reducing cell viability by 90% was defined as the TD90 cytotoxic dose. The “therapeutic index” (TI) was also determined and defined as the ratio between TD90 and the MBC values.

[6] = tested on: E. coli ATCC 25922; test: MIC on reference sensitive E. coli; assay type: cell-based, Escherichia coli
Excerpt: (§6) We thus tested 1–8 and III initially on the reference sensitive E. coli ATCC 25922 and on the extended-spectrum of beta-lactamase-positive (ESBL) E. coli, as Gram-negative bacteria. Moreover, in order to evaluate the susceptibility of this series of compounds to the efflux pump AcrAB, we employed also the above-mentioned E. coli N43, which is the knockout of the AcrAB cell membrane pump.

[7] = tested on: ESBL E. coli; test: MIC in LB broth, ESBL E. coli clinical isolate; assay type: cell-based, Escherichia coli
Method: as §6, §1, §2

[8] = tested on: E. coli N43; test: Broth microdilution MIC, efflux-defective E. coli N43; assay type: cell-based, Escherichia coli
Method: as §6, §4, §5

[9] = tested on: S. aureus ATCC 43300; test: Transmission electron microscopy of septum formation; assay type: cell-based, Staphylococcus aureus; details: MRSA cultured overnight; 1 at 1 μg/mL, DFNB at 0.25 μg/mL
Excerpt: After having assessed the antimicrobial profile of this class of derivatives, we chose 1 to be further analyzed by transmission electron microscopy (TEM), in order to evaluate any morphological changes in septum formation, as done before as a simple FtsZ target validation assay. We cultured S. aureus ATCC 43300 alone or in the presence of 1 and 2,6-difluorononyloxybenzamide (DFNB) as a reference FtsZ inhibitor (positive control). […] These are the typical effects of the inhibition of FtsZ assembly and consequently of the block of bacterial cell division.
S. aureus ATCC 43300 (10^9 cells/mL) were cultured in the presence of 1 and DFNB (positive control), at the same concentrations used for optical microscopy and, after 16 h incubation at 37 °C, the cells were harvested and processed for transmission electron microscopy, as already described. Untreated S. aureus was used as negative control. After centrifugation at 3100× g for 5 min at room temperature, pelleted bacteria were fixed in 2.5% glutaraldehyde (Polysciences, Warrington, PA) in 0.1 M Na cacodylate buffer, pH 7.4, for 1 h at 4 °C, rinsed twice and post-fixed in Na cacodylate-buffered 1% OsO4 for 1 h at 4 °C. The samples were dehydrated through a series of graded ethanol solutions and propylene oxide and embedded in Poly/Bed 812 resin mixture. […]

[10] = Staphylococcus aureus, read-out: MBC
[11] = Staphylococcus aureus, read-out: MIC
[12] = Escherichia coli, read-out: MIC

| Compound | MBC [1] [µg/mL] | MBC/MIC [1] | MIC [1] [µg/mL] | MBC [2] [µg/mL] | MBC/MIC [2] | MIC [2] [µg/mL] | MIC [3] [µg/mL] | MIC [4] [µg/mL] | TD90 [5] [µg/mL] | MIC ([6]; E. coli ATCC 25922) [µg/mL] | MIC [7] [µg/mL] | MIC ([8]; E. coli N43 (AcrAB knockout)) [µg/mL] | MBC [1, 10] [µg/mL] | MIC [1, 11] [µg/mL] | MBC [2, 10] [µg/mL] | MIC [2, 11] [µg/mL] | MIC ([6]; Escherichia coli, ATCC25922) [µg/mL] | MIC [7, 12] [µg/mL] | other results |
| --- | --- | --- | --- | --- | --- | --- | --- | --- | --- | --- | --- | --- | --- | --- | --- | --- | --- | --- | --- |
| 3-(1,4-benzodithiane-2-yl)-2,6-difluorobenzamide [Compound 5] | 10 | 2 | 5 | 10 | 2 | 5 | 8 | 8 | 200 | >100 | >100 | >128 |  |  |  |  |  |  |  |
| 3-(1,4-benzoxathiane-2-yl)-2,6-difluorobenzamide [Compound 1] | 1 | 1 | 1 | 1 | 1 | 1 | 2 | 2 | >800 | >100 | >100 | 64 |  |  |  |  |  |  | Morphological changes in septum formation (TEM) [9]: strong alterations in the septum formation and bacterial desegregation |
| 3-(1,4-benzoxathiane-3-yl)-2,6-difluorobenzamide [Compound 3] | 20 | 1 | 20 | 20 | 1 | 20 | 32 | 32 | 200 | >100 | >100 | 128 |  |  |  |  |  |  |  |
| NC(=O)c1c(F)ccc(OCC2CS(=O)(=O)c3ccccc3O2)c1F (stereo not drawn) [Compound 2] |  |  |  |  |  |  |  |  |  |  |  |  | > 100 | > 100 | > 100 | > 100 | > 100 | > 100 |  |
| NC(=O)c1c(F)ccc(OCC2COc3ccccc3S2(=O)=O)c1F (stereo not drawn) [Compound 4] |  |  |  |  |  |  |  |  |  |  |  |  | > 100 | > 100 | > 100 | > 100 | > 100 | > 100 |  |
| NC(=O)c1c(F)ccc(OCCC2CSc3ccccc3O2)c1F (stereo not drawn) [Compound 6] |  | 2 |  |  | 2 |  |  |  |  |  |  |  | 5 (≈ 14.2 µM) | 2.5 (≈ 7.11 µM) | 5 (≈ 14.2 µM) | 2.5 (≈ 7.11 µM) | > 100 | > 100 | MIC [3, 11]: 4 µg/mL (≈ 11.4 µM); MIC [4, 11]: 8 µg/mL (≈ 22.8 µM); MIC ([8]; Escherichia coli, N43): > 128 µg/mL |
| NC(=O)c1c(F)ccc(OCCC2COc3ccccc3O2)c1F (stereo not drawn) [Compound 7] |  | 1 |  |  | 1 |  |  |  | 380 |  |  |  | 5 (≈ 14.9 µM) | 5 (≈ 14.9 µM) | 5 (≈ 14.9 µM) | 5 (≈ 14.9 µM) | > 100 | > 100 | MIC [3, 11]: 4 µg/mL (≈ 11.9 µM); MIC [4, 11]: 4 µg/mL (≈ 11.9 µM); MIC ([8]; Escherichia coli, N43): 8 µg/mL (≈ 23.9 µM) |
